From ChEMBL document CHEMBL4261514, “Interaction of indomethacin with calf thymus DNA: a multi-spectroscopic, thermodynamic and molecular modelling approach” (Medchemcomm, 2017)
The source made the active and inactive calls. No cut-off for these calls is given here.

Tests used:
Assay type in all cases: nucleic-acid assay
Details in all cases: Bos taurus
Calf thymus DNA [1] = assay: Inhibition of ethidium bromide binding to calf thymus DNA up to 80 uM by fluorescence assay
Calf thymus DNA [2] = assay: Binding affinity to calf thymus DNA assessed as conformational change up to 100 uM by circular dichroism spectral analysis
Calf thymus DNA [3] = assay: Binding affinity to calf thymus DNA assessed as melting temperature at 50 uM by UV-visible spectroscopic method (reference value: 66.3 +/- 1 degC)
Calf thymus DNA [4] = assay: Binding affinity to calf thymus DNA assessed as quenching constant at 50 uM at pH 7.2 by spectrofluorophotometric method
Calf thymus DNA [5] = assay: Binding affinity to calf thymus DNA assessed as iodide quenching by measuring reduction in Stern-Volmer quenching constant at 50 uM by fluorescence assay relative to control; parameters: scale not given: the % may be the effect or the level left
Calf thymus DNA [6] = assay: Inhibition of acridine orange binding to calf thymus DNA up to 80 uM by fluorescence assay
Calf thymus DNA [7] = assay: Inhibition of Hoechst 33258 binding to calf thymus DNA up to 70 uM by fluorescence assay
Calf thymus DNA [8] = assay: Binding affinity to calf thymus DNA by UV-visible spectrophotometric method
Calf thymus DNA [9] = assay: Binding affinity to calf thymus DNA assessed as hyperchromic shift at 281 nm at 50 uM by UV-visible spectrophotometric method
Calf thymus DNA [10] = assay: Binding affinity to calf thymus DNA at 50 uM in presence of NaCl by fluorescence assay
Calf thymus DNA [11] = assay: Binding affinity to calf thymus DNA assessed as Stern-Volmer quenching constant at 50 uM at pH 7.2 by spectrofluorophotometric method
Calf thymus DNA [12] = assay: Binding affinity to calf thymus DNA by isothermal calorimetric titration method
Calf thymus DNA [13] = assay: Binding affinity to calf thymus DNA assessed as change in viscosity at compound to DNA ratio of 0.2 to 1 by viscometry

inhibition (Calf thymus DNA [1]): inactive
Activity (Calf thymus DNA [2]): inactive
Tm (Calf thymus DNA [3]): 68.2 °C
Kq (Calf thymus DNA [4]): 1.1 ×10¹¹ L/mol/s
Activity (Calf thymus DNA [5]): 19%
inhibition (Calf thymus DNA [6]): inactive
inhibition (Calf thymus DNA [7]): Active
K (Calf thymus DNA [8]): 9.6 ×10³ L/mol
Activity (Calf thymus DNA [9]): Active
Activity (Calf thymus DNA [10]): inactive
KSV (Calf thymus DNA [11]): 1.1 ×10³ L/mol
K (Calf thymus DNA [12]): 5.5 ×10³ /mol
Activity (Calf thymus DNA [13]): inactive
SMILES: COc1ccc2c(c1)c(CC(=O)O)c(C)n2C(=O)c1ccc(Cl)cc1
